# Data as given in patent US9682957B2 (Theravance Respiratory Company, LLC, priority 2009, dated 2017).
# Counter-ions that a name gives are not always drawn.
# Tested on: MCh-induced bronchoconstriction
# Test: Einthoven assay: bronchoprotection against methacholine (MCh)-induced bronchoconstriction
# Type: in vivo
# Conditions: rat, 100 μg by inhalation, 24 h after administration
# Method: This assay measures the ability of a test compound to provide bronchoprotection against methacholine (MCh)-induced bronchoconstriction in a rat. Male Sprague-Dawley rats (Harlan, Indianapolis, Ind.), weighing between 200 g and 350 g, were used for all studies. Test compound or vehicle (sterile deionized water) were dosed by inhalation (IH) over a 10 min period in a pie shaped inhalation chamber (R+S Molds, San Carlos, Calif.) using 5 mL of dosing solution. […] Rats were dosed with 100 μg of test compound unless otherwise indicated. At predetermined time points, rats were anesthetized with an intraperitoneal (IP) injection of 120 mg/kg inactin (thiobutabarbital). A supplemental dose (40 mg/kg, IP) was administered if the animal responded to physical stimuli (e.g. toe pinch). The surgical site was shaved and a 1-2 cm midline incision of the ventral aspect of the neck was made. The jugular vein was isolated and cannulated with a saline-filled polyethylene catheter (PE-50) to allow IV infusion of MCh. Trachea was dissected free and cannulated with a 14G needle (#NE-014, Small Parts, Miami Lakes, Fla.). After placement of the tracheal cannula, each rat was ventilated using a respirator (Model 683, Harvard Apparatus, Inc., MA) set at a stroke volume of 1 mL/100 g body weight (but not exceeding 2.5 mL volume) and a rate of 90 strokes per minute. A T-connector was placed along the respirator expiratory tubing to allow for measurement of changes in ventilation pressure (VP) using a Biopac transducer that was connected to a Biopac […]) pre-amplifier. Body temperature was maintained at 37° C. using a heating pad. Changes in VP were recorded using the Acknowledge Data Collection Software (Santa Barbara, Calif.). Baseline values were collected for at least 2.5 min. Rats were then challenged with non-cumulative intravenous (IV) infusions of 40 and 80 μg/kg MCh. MCh was infused intravenously for 2.5 minutes from a syringe pump (sp210iw, World Precision Instruments, Inc., Sarasota, Fla.) at a rate of 2 mL/kg/min, with a 2 minute interval between the two doses of MCh. Changes in ventilation pressure (cm H2O) in treated animals are expressed as % inhibition of MCh response relative to control animals. Other bronchoconstrictors, such as histamine and acetylcholine, can be used in place of MCh in this assay. Additionally, guinea pigs can be used instead of rats. […] Inhibition greater than or equal to 30 percent at 24 h is indicative of a long duration of action.
row,Compound,Broncho. at 24 h
1,"C[C@@H](Cc1cccc(CC(=O)NCCCN(C)C(=O)CCN2CCC(OC(=O)Nc3ccccc3-c3ccccc3)CC2)c1)NC[C@H](O)c1ccc(O)c2[nH]c(=O)ccc12 [Compound I-13, Biphenyl-2-ylcarbamic Acid 1-[2-({3-[2-(3-{(S)-2-[(R)-2-Hydroxy-2-(8-hydroxy-2-oxo-1,2-dihydroquinolin-5-yl)ethylamino]propyl}phenyl)acetylamino]-propyl}methylcarbamoyl)ethyl]piperidin-4-yl Ester Ditrifluoroacetic Acid Salt]","Yes (Bronchoprotective effect present at 24 h, e.g., ≧30 % inhibition of the MCh response at 24 h in the rat Einthoven assay (100 μg))"
2,"CC(Cc1cccc(CCNC(=O)Cc2ccc(N(C)C(=O)CCN3CCC(OC(=O)Nc4ccccc4-c4ccccc4)CC3)cc2)c1)NC[C@H](O)c1ccc(O)c2[nH]c(=O)ccc12 (some centres unmarked) [Compound I-85, ditrifluoroacetic acid salt]","Yes (Bronchoprotective effect present at 24 h, e.g., ≧30 % inhibition of the MCh response at 24 h in the rat Einthoven assay (100 μg))"
3,"CN(CCCC(=O)Nc1cccc(CCNC[C@H](O)c2ccc(O)c3[nH]c(=O)ccc23)c1)C(=O)CCN1CCC(OC(=O)Nc2ccccc2-c2ccccc2)CC1 [Compound I-7, Biphenyl-2-ylcarbamic Acid 1-(2-{[3-(3-{2-[(R)-2-Hydroxy-2-(8-hydroxy-2-oxo-1,2-dihydroquinolin-5-yl)ethylamino]ethyl}phenylcarbamoyl)-propyl]methylcarbamoyl}ethyl)piperidin-4-yl Ester Ditrifluoroacetic Acid Salt]","Yes (Bronchoprotective effect present at 24 h, e.g., ≧30 % inhibition of the MCh response at 24 h in the rat Einthoven assay (100 μg))"
4,"CN(CCCCC(=O)Nc1ccc(CNC[C@H](O)c2ccc(O)c3[nH]c(=O)ccc23)cc1)C(=O)CCN1CCC(OC(=O)Nc2ccccc2-c2ccccc2)CC1 [Compound I-14, Biphenyl-2-ylcarbamic Acid 1-(2-{[4-(4-{[(R)-2-hydroxy-2-(8-hydroxy-2-oxo-1,2-dihydroquinolin-5-yl)ethylamino]methyl}phenylcarbamoyl)-butyl]methylcarbamoyl}ethyl)piperidin-4-yl Ester Ditrifluoroacetic Acid Salt]","Yes (Bronchoprotective effect present at 24 h, e.g., ≧30 % inhibition of the MCh response at 24 h in the rat Einthoven assay (100 μg))"
5,"CN(C(=O)CCN1CCC(OC(=O)Nc2ccccc2-c2ccccc2)CC1)c1cccc(C(=O)Nc2ccc(CCNC[C@H](O)c3ccc(O)c4[nH]c(=O)ccc34)cc2)c1 [Compound I-34, Ditrifluoroacetate]","Yes (Bronchoprotective effect present at 24 h, e.g., ≧30 % inhibition of the MCh response at 24 h in the rat Einthoven assay (100 μg))"
6,"Cc1cc(NC(=O)CCCCN(C)C(=O)CCN2CCC(OC(=O)Nc3ccccc3-c3ccccc3)CC2)c(C)cc1CNC[C@H](O)c1ccc(O)c2[nH]c(=O)ccc12 [Compound I-18, Biphenyl-2-ylcarbamic Acid 1-(2-{[4-(4-{[(R)-2-Hydroxy-2-(8-hydroxy-2-oxo-1,2-dihydroquinolin-5-yl)ethylamino]methyl}-2,5-dimethylphenylcarbamoyl)butyl]methylcarbamoyl}ethyl)piperidin-4-yl Ester Ditrifluoroacetic Acid Salt]","Yes (Bronchoprotective effect present at 24 h, e.g., ≧30 % inhibition of the MCh response at 24 h in the rat Einthoven assay (100 μg))"
7,Cc1ccc(C(=O)Nc2ccc(CCNC[C@H](O)c3ccc(O)c4[nH]c(=O)ccc34)cc2)cc1N(C)C(=O)CCN1CCC(OC(=O)Nc2ccccc2-c2ccccc2)CC1 [Compound I-35],"Yes (Bronchoprotective effect present at 24 h, e.g., ≧30 % inhibition of the MCh response at 24 h in the rat Einthoven assay (100 μg))"

# Same assay, conditions: rat, 100 μg by inhalation, 24 h after administration; ditrifluoroacetic acid salt
row,Compound,Broncho. at 24 h
1,"CC(Cc1ccc(CNC(=O)Cc2ccc(N(C)C(=O)CCN3CCC(OC(=O)Nc4ccccc4-c4ccccc4)CC3)cc2)cc1)NC[C@H](O)c1ccc(O)c2[nH]c(=O)ccc12 (stereo partly drawn) [Compound I-66, Biphenyl-2-ylcarbamic acid 1-[2-({4-[(4-{2-[(R)-2-hydroxy-2-(8-hydroxy-2-oxo-1,2-dihydroquinolin-5-yl)-ethylamino]propyl}benzylcarbamoyl)methyl]phenyl}-methylcarbamoyl)ethyl]piperidin-4-yl ester ditrifluoroacetic acid salt]",No
